From PubChem BioAssay (NCI)
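Five concentrations, 48 hours, 96-well plates. The concentration for 50% growth inhibition is given as GI50. TGI denotes the concentration required for complete inhibition of growth.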

How the values were obtained:
Experiment in all cases: NCI tumour cell line growth inhibition, 48 h
[1] = system: 786-0 renal
[2] = system: A498 renal
[3] = system: A549 NSCLC
[4] = system: ACHN renal
[5] = system: CAKI-1 renal
[6] = system: CCRF-CEM leukemia
[7] = system: COLO 205 colon
[8] = system: DU-145 prostate
[9] = system: EKVX NSCLC
[10] = system: HCC-2998 colon
[11] = system: HCT-116 colon
[12] = system: HCT-15 colon
[13] = system: HL-60(TB) leukemia
[14] = system: HOP-62 NSCLC
[15] = system: HOP-92 NSCLC
[16] = system: HS 578T breast
[17] = system: HT29 colon
[18] = system: IGROV1 ovarian
[19] = system: K-562 leukemia
[20] = system: KM12 colon
[21] = system: LOX IMVI melanoma
[22] = system: M14 melanoma
[23] = system: MALME-3M melanoma
[24] = system: MCF7 breast
[25] = system: MDA-MB-231 breast
[26] = system: MDA-MB-435
[27] = system: MOLT-4 leukemia
[28] = system: NCI-H226 lung
[29] = system: NCI-H23 lung
[30] = system: NCI-H460 lung
[31] = system: NCI-H522 lung
[32] = system: NCI/ADR-RES ovarian
[33] = system: OVCAR-3 ovarian
[34] = system: OVCAR-4 ovarian
[35] = system: OVCAR-5 ovarian
[36] = system: OVCAR-8 ovarian
[37] = system: PC-3 prostate
[38] = system: RPMI-8226 leukemia
[39] = system: RXF 393 renal
[40] = system: SF-268 CNS
[41] = system: SF-295 CNS
[42] = system: SF-539 CNS
[43] = system: SK-MEL-2 melanoma
[44] = system: SK-MEL-28 melanoma
[45] = system: SK-MEL-5 melanoma
[46] = system: SK-OV-3 ovarian
[47] = system: SN12C renal
[48] = system: SNB-19 CNS
[49] = system: SNB-75 CNS
[50] = system: SR leukemia
[51] = system: SW-620 colon
[52] = system: T-47D breast
[53] = system: TK-10 renal
[54] = system: U251 CNS
[55] = system: UACC-257 melanoma
[56] = system: UACC-62 melanoma
[57] = system: UO-31 renal

Q: What does the source list for `COc1cc2c(/C=C3/C(=O)Nc4ccc(O)cc43)c(Cl)n(Cc3cc(OC)c(OC)c(OC)c3)c2cc1C`?
A: GI50 [1]: 1.6 µM; TGI [1]: > 29.3 µM; GI50 [2]: 3.09 µM; TGI [2]: > 30.2 µM; GI50 [3]: 3.45 µM; TGI [3]: > 100 µM; GI50 [4]: 3.43 µM; TGI [4]: > 100 µM; GI50 [5]: 2.25 µM; TGI [5]: 15 µM; GI50 [6]: 1.38 µM; TGI [6]: 10.9 µM; GI50 [7]: 2.61 µM; TGI [7]: > 100 µM; GI50 [8]: 3.42 µM; TGI [8]: > 30.3 µM; GI50 [9]: 2.69 µM; TGI [9]: > 38.5 µM; GI50 [10]: 3.3 µM; TGI [10]: > 36.1 µM; GI50 [11]: 2.18 µM; TGI [11]: > 33.2 µM; GI50 [12]: 1.81 µM; TGI [12]: > 34.1 µM; GI50 [13]: 1.97 µM; TGI [13]: 10.3 µM; GI50 [14]: 1.65 µM; TGI [14]: 29.4 µM; GI50 [15]: 3.18 µM; TGI [15]: 21.9 µM; GI50 [16]: 2.37 µM; TGI [16]: > 30.5 µM; GI50 [17]: 1.71 µM; TGI [17]: > 55.9 µM; TGI [18]: 5.75 µM; GI50 [19]: 2.17 µM; TGI [19]: > 31.6 µM; GI50 [20]: 1.63 µM; TGI [20]: > 30.5 µM; GI50 [21]: 2.05 µM; TGI [21]: 16.3 µM; GI50 [22]: 1.93 µM; TGI [22]: 51 µM; GI50 [23]: 0.494 µM; TGI [23]: 3.91 µM; GI50 [24]: 0.776 µM; TGI [24]: 19.7 µM; GI50 [25]: 4.75 µM; TGI [25]: > 100 µM; GI50 [26]: 0.328 µM; GI50 [27]: 2.34 µM; TGI [27]: > 21.9 µM; GI50 [28]: 2.88 µM; TGI [28]: > 27 µM; GI50 [29]: 3.54 µM; TGI [29]: > 100 µM; GI50 [30]: 1.86 µM; TGI [30]: > 32.7 µM; GI50 [31]: 0.633 µM; TGI [31]: 4.45 µM; GI50 [32]: 3.41 µM; TGI [32]: > 100 µM; GI50 [33]: 1.32 µM; TGI [33]: > 20.8 µM; GI50 [34]: 4.03 µM; TGI [34]: > 100 µM; GI50 [35]: 15.6 µM; TGI [35]: > 100 µM; GI50 [36]: 3.05 µM; TGI [36]: > 26.5 µM; GI50 [37]: 1.56 µM; TGI [37]: > 83.6 µM; GI50 [38]: 2.12 µM; TGI [38]: > 100 µM; GI50 [39]: 1.37 µM; TGI [39]: 6.4 µM; GI50 [40]: 4.64 µM; TGI [40]: > 100 µM; GI50 [41]: 0.795 µM; TGI [41]: 5.67 µM; GI50 [42]: 2.24 µM; TGI [42]: > 31.1 µM; GI50 [43]: 1.93 µM; TGI [43]: 13.7 µM; GI50 [44]: 0.878 µM; TGI [44]: 5.94 µM; GI50 [45]: 1.02 µM; TGI [45]: 2.71 µM; GI50 [46]: 4.06 µM; TGI [46]: > 75 µM; GI50 [47]: 4.14 µM; TGI [47]: > 44 µM; GI50 [48]: 3.32 µM; TGI [48]: > 100 µM; GI50 [49]: 1.61 µM; TGI [49]: > 59.8 µM; GI50 [50]: 0.329 µM; GI50 [51]: 3.28 µM; TGI [51]: > 100 µM; GI50 [52]: 5.55 µM; TGI [52]: > 70.8 µM; GI50 [53]: 3.25 µM; TGI [53]: > 24.6 µM; GI50 [54]: 2.49 µM; TGI [54]: > 28.3 µM; GI50 [55]: 3.43 µM; TGI [55]: > 47.6 µM; GI50 [56]: 1.58 µM; TGI [56]: 8.56 µM; GI50 [57]: 3.25 µM; TGI [57]: > 74.4 µM
